US20230134986A1, “GLUCOSE TRIPTOLIDE CONJUGATES AND USES THEREOF” (The Johns Hopkins University, priority 2020, published 2023)

What was measured:
HeLa cells = experiment: Apoptosis signaling in HeLa cells (nuclear fragmentation, cytochrome c, caspase 3, PARP1); type: cell-based, human; settings: co-treatment with higher concentrations of SP
Method: (§1) Western blot analysis. Whole cell lysates were prepared by adding lysis buffer [4% SDS, 20% glycerol, 10% 2-mercaptoethanol, 0.004% bromophenol blue, 0.125 M Tris-HCl (pH 6.8)] to the cell pellets for 30 minutes in ice followed by centrifugation at 12,000×g for 10 minutes then boiling for 5 minutes. For isolation of cytosolic and mitochondrial fractions of cytochrome C, cell pellets were resuspended in CLAMI buffer (250 mM sucrose, 70 mM KCl, […] digitonin in 1×PBS, protease inhibitor cocktail (1 tablet/10 ml CLAMI buffer)) then incubated on ice for 5 minutes. After centrifugation at 12,000×g for 5 minutes at 4° C., supernatant (cytoplasmic fraction) was collected and the pellet resuspended in lysis buffer as described above. Proteins were then separated by SDS-PAGE and transferred to nitrocellulose membranes (Bio-Rad). After blocking at room temperature for 1 h, membranes were incubated at 4′C overnight with the primary antibodies including anti-Rpb1 (Santa Cruz Biotechnology), anti-XPB (Biotechne), anti-Actin (Developmental Studies Hybridoma Bank), anti-GAPDH (Santa Cruz Biotechnology), anti-cytochrome C (Santa Cruz Biotechnology), anti-PARP1 (Santa Cruz Biotechnology), anti-cleaved caspase 3 (Cell Signaling Technology), anti-VDAC (ProteinTech), anti-HIF-1[…] (BD sciences), and anti-GLUT1 (Santa Cruz Biotechnology) antibodies followed by incubation with horseradish peroxidase-conjugated anti-mouse or anti-rabbit IgG (GE Healthcare) at room temperature for 2 hours. Antibody-protein complexes were detected using enhanced chemiluminescence (ECL) immunoblotting detection reagent (EMD Millipore).
Immunocytochemistry and cytochemistry. HeLa or PC3 cells (2×10^5) were seeded on a MatTek glass bottom culture dish (Fisher Scientific, Pittsburgh, Pa., USA) and allowed to adhere for 24 h. Cells were then treated with either DMSO or drugs for 6 or 24 h then fixed with 4% paraformaldehyde, permeabilized using 1×PBS with 0.5% triton X 100 then probed for endogenous RNA Polymerase II catalytic subunit Rpb1 or HIF-1α using anti-RNAPII (Santa Cruz Biotechnology) and anti-HIF-1α (BD sciences) antibodies, respectively. Detection was then done using anti-mouse Alexa Fluor 488 (Invitrogen). For nuclear staining, fixed and permeabilized cells were incubated in DAPI (ThermoFisher) or Hoechst 33258 (Sigma) for 30 minutes prior to imaging. Glucose uptake was monitored by incubating cells in 200 μM 2-NBDG (ThermoFisher) for 6 hours prior to fixation. Fluorescence was observed under the Nikon Eclipse TE200 Inverted microscope (Nikon Instruments Inc., Melville, N.Y., USA). ImageJ software (NIH, Bethesda, Md., USA; http://imagej.nih.gov/ij/index.html) was used to measure intracellular protein levels in immuno-cytochemistry samples (Li et al. (2015) Toxicological Sciences: an Official Journal of the Society of Toxicology 143:196-208). Rpb1 levels were measured using the MEASURE feature of ImageJ where all the background signals were subtracted from the intergrated density of nuclear Rpb1.

[1] = system: RPB1 (catalytic subunit of RNAPII); experiment: RPB1 (RNAPII) degradation in HeLa cells, immunostaining and western blot; type: cell-based, human
Method: as §1
(§2) Immunocytochemistry and cytochemistry. […] Glucose uptake was monitored by incubating cells in 200 μM 2-NBDG (ThermoFisher) for 6 hours prior to fixation. Fluorescence was observed under the Nikon Eclipse TE200 Inverted microscope (Nikon Instruments Inc., Melville, N.Y., USA). […] Rpb1 levels were measured using the MEASURE feature of ImageJ where all the background signals were subtracted from the intergrated density of nuclear Rpb1.

XPB = molecular target: T1, XPB (Homo sapiens, UniProt P19447); experiment: XPB degradation in cells, western blot; type: cell-based; settings: 10 mM SP (so in the source)
T1 construct: spironolactone induces the degradation of endogenous XPB in cells; endogenous in cells
Method: (§3) Western blot analysis. Whole cell lysates were prepared by adding lysis buffer [4% SDS, 20% glycerol, 10% 2-mercaptoethanol, 0.004% bromophenol blue, 0.125 M Tris-HCl (pH 6.8)] to the cell pellets for 30 minutes in ice followed by centrifugation at 12,000×g for 10 minutes then boiling for 5 minutes. For isolation of cytosolic and mitochondrial fractions of cytochrome C, cell pellets were resuspended in CLAMI buffer (250 mM sucrose, 70 mM KCl, […] digitonin in 1×PBS, protease inhibitor cocktail (1 tablet/10 ml CLAMI buffer)) then incubated on ice for 5 minutes. After centrifugation at 12,000×g for 5 minutes at 4° C., supernatant (cytoplasmic fraction) was collected and the pellet resuspended in lysis buffer as described above. Proteins were then separated by SDS-PAGE and transferred to nitrocellulose membranes (Bio-Rad). […] Antibody-protein complexes were detected using enhanced chemiluminescence (ECL) immunoblotting detection reagent (EMD Millipore).

HEK 293T cells = experiment: HEK293T cell proliferation assay ([3H]-thymidine incorporation); type: cell-based, human; settings: Homo sapiens; anti-proliferative activity, HEK 293T cells, 24 h drug exposure; read-out: IC50 ± SEM
Excerpt: Cells and culture conditions. Primary astrocytes (Lonza, Walkersville, Md.; ABM™ Basal Media with AGM™ SingleQuots™ Supplement Pack), fibroblast (ATCC; Fibroblast Basal Medium (ATCC© PCS-201-030™) with Fibroblast Growth Kit-Serum-free (ATCC© PCS-201-040™)), airway epithelial cell (ATCC; Airway Epithelial Cell Basal Medium (ATCC© PCS-300-030™) with Bronchial Epithelial Cell Growth Kit (ATCC© PCS-300-040™)), renal proximal tubule (ATCC; Renal Epithelial Cell Basal Medium (ATCC© PCS-400-030™) with Renal Epithelial Cell Growth Kit (ATCC© PCS-400-040™)), prostate epithelial cell (Lonza; PrEGM™ BulletKit™) and mammary epithelial cell (Lonza; MEBM™ BulletKit™) were kept in a humidified incubator at 37° C. adjusted to 5% CO2. Prostate (PC3, LNCaP, DU-145), breast (MDA-MB-231, MDA-MB-453, SK-BR-3), head and neck (A253, Detroit 562, SCC-25), melanoma (SK-Mel-3, SK-Mel-1, RPMI-7951), pancreatic (CfPAC-1, BxPC3, SW1990), lung (A549, NCI-H1299, NCI-H1437) and liver (SNU-475, SK-HEP-1, SNU-387) cancer cell lines were obtained from ATCC and cultured in their respective media (prostate cells: RPMI-1640, MDA-MB-231: RPMI-1640, MDA-MB-453: Leibovitz's L-15, SK-BR-3: McCoy's 5a, A253: McCoy's 5a, Detroit 562: EMEM, SCC-25: DMEM, SK-Mel-3: McCoy's 5a, SK-Mel-1: EMEM, RPMI-7951: EMEM), CfPAC-1: IMDM, BxPC3: RPMI-1640, SW1990: Leibovitz's L-15), A549: F-12K, NCI-H1299: RPMI-1640, NCI-H1437: RPMI-1640, SNU-475: RPMI-1640, SK-HEP-1: EMEM, SNU-387: RPMI-1640. All media were supplemented with 10% (vol/vol) filtered fetal bovine serum (FBS, Invitrogen, Carlsbad, Calif.), 1% penicillin/streptomycin (Invitrogen) and maintained in a humidified incubator at 37° C. with 5% CO2 except for MDA-MB-453 and SW1990 grown at 37° C. without CO2 control. Wild type (ATCC) and C342T XPB knock-in cells (named T7115) of Human Embryonic Kidney 293T (HEK293T), HeLa (ATCC) were cultured in DMEM (GIBCO) with 10% (vol/vol) filtered fetal bovine serum (FBS, Invitrogen, Carlsbad, Calif.), 1% penicillin/streptomycin (Invitrogen).
(§4) Proliferation and viability assays. [^3H]-thymidine incorporation. HEK293T cells (10,000 cells/well) were seeded into 96-well plates then cultured in DMEM plus 10% FBS and 1% penicillin/streptomycin at 37° C. with 5% CO2 overnight. Drugs were added at indicated concentrations and incubation was continued for an additional 24 h. For hypoxia, PC3 (5,000 cells/well) were exposed to 1% O2 (Airgas) in a humidified hypoxia chamber (Billups-Rothenberg) in 37° C. for 48 h prior to drug exposure for 48 h. Treated cells were then pulsed using an aliquot of 1 μCi of [^3H]-thymidine (Perkin Elmer) per well for an additional 6 h. Radiolabelled cells were harvested onto a printed Filtermat A glass fiber filter (Perkin Elmer) using a Tomtec Harvester 96 Mach III M. Betaplate Scint (Perkin Elmer) scintillation fluid was added to radiolabelled filters followed by scintillation counting on Microbeta2 LumiJET Microplate Counter (Perkin Elmer).

PC3 cells = experiment: PC3 proliferation under hypoxia or normoxia ([3H]-thymidine incorporation); type: cell-based, human; settings: hypoxia versus normoxia
Method: as §4

[2] = system: RPB1 (RNAPII) in PC3 cells; experiment: RPB1 degradation in PC3 cells under hypoxia, immunocytochemistry and western blot; type: cell-based, human; settings: PC3, hypoxic (1% O2), 10 mM WZB117 plus 3 mM compound 1 (so in the source); μM)
Method: as §3, §2

[3] = cited from earlier work
[4] = lethal case dosed with 18 mg/m2 F60008

T1 sequence (P19447 whole entry): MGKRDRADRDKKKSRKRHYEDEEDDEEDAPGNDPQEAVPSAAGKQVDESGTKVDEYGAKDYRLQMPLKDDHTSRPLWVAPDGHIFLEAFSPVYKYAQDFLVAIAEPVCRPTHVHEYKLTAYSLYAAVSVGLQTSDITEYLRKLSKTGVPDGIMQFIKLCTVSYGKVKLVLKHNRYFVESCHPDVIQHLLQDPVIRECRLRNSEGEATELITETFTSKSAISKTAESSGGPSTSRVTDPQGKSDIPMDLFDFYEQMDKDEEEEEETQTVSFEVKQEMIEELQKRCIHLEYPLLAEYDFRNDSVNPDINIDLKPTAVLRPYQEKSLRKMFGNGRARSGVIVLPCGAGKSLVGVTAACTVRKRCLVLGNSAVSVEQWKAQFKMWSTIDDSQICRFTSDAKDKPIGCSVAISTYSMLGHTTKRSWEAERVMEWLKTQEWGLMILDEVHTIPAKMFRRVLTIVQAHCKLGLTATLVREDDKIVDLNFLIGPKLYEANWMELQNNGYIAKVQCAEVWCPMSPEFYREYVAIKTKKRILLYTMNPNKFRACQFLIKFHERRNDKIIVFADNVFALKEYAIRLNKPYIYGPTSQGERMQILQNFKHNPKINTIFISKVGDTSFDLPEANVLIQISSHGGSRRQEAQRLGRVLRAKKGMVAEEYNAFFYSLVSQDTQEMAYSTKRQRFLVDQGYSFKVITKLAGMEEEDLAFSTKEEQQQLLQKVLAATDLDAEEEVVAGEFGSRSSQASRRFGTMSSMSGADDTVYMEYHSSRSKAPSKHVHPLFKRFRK

For `CC(=O)S[C@@H]1CC2=CC(=O)CC[C@]2(C)[C@H]2CC[C@@]3(C)[C@@H](CC[C@@]34CCC(=O)O4)[C@H]12` [spironolactone], which “effect on compound 1-induced PARP1 cleavage” value (HeLa cells) is on record?
The value was “prevented PARP1 cleavage”.

And the “endogenous RNAPII (RPB1) level” value ([1]; 10 mM spironolactone alone (so in the source); 10 μM))?
The value was “do not affect protein levels”.

What about the “rescue of RNAPII from compound 1-induced degradation” value ([1]; pre-treatment with 10 mM spironolactone (so in the source), then 1 mM compound 1) of the same compound?
Its value is “rescues endogenous RNAPII”.

What about the “degradation of XPB” value (XPB) of the same compound?
The value was “caused degradation of the majority of XPB”.

For `CC(C)[C@]12O[C@H]1[C@@H]1O[C@]13[C@]1(O[C@H]1C[C@H]1C4=C(CC[C@@]13C)C(=O)OC4)[C@@H]2OC(=O)c1ccccc1C(=O)O[C@H]1OC(CO)[C@@H](O)C(O)C1O` (stereo partly drawn) [Compound 5], which IC50 (HEK 293T cells) is on record?
Its IC50 is 6667 ± 2.03 nM.

Which IC50 (HEK 293T cells) does the source give for `CC(C)[C@]12O[C@H]1[C@@H]1O[C@]13[C@]1(O[C@H]1C[C@H]1C4=C(CC[C@@]13C)C(=O)OC4)[C@@H]2OC(=O)CCCC(=O)O[C@H]1OC(CO)[C@@H](O)C(O)C1O` (stereo partly drawn) [Compound 7] here?
Its IC50 is 735 ± 1.11 nM.

For `COc1cccc2c1C(=O)c1c(O)c3c(c(O)c1C2=O)C[C@@](O)(C(=O)CO)C[C@@H]3O[C@H]1C[C@H](N)[C@H](O)[C@H](C)O1` [doxorubicin], which “change of potency under hypoxia” value (PC3 cells) is on record?
Its value is “decreased”.

With `CC(C)[C@]12O[C@H]1[C@@H]1O[C@]13[C@]1(O[C@H]1C[C@H]1C4=C(CC[C@@]13C)C(=O)OC4)[C@@H]2OC(=O)CC(C)(C)C(=O)O[C@@H]1OC(CO)[C@@H](O)C(O)C1O` (stereo partly drawn) [Compound 2] as the compound, how does the IC50 (HEK 293T cells) read?
The IC50 was 3305 ± 0.98 nM.

Which IC50 (HEK 293T cells) does the source give for `CC(C)[C@]12O[C@H]1[C@@H]1O[C@]13[C@]1(O[C@H]1C[C@H]1C4=C(CC[C@@]13C)C(=O)OC4)[C@@H]2OC(=O)CCC(=O)OCC1OC(O)C(O)C(O)[C@@H]1O` (stereo partly drawn) [Compound 8] here?
Its IC50 is 244 ± 0.81 nM.

With `CC(C)[C@]12O[C@H]1[C@@H]1O[C@]13[C@]1(O[C@H]1C[C@H]1C4=C(CC[C@@]13C)C(=O)OC4)[C@@H]2OC(=O)CCCC(=O)O[C@@H]1OC(CO)[C@@H](O)C(O)C1O` (stereo partly drawn) [Compound 6] as the compound, how does the IC50 (HEK 293T cells) read?
Its IC50 is 1134 ± 1.15 nM.

For `CC(C)[C@]12O[C@H]1[C@@H]1O[C@]13[C@]1(O[C@H]1C[C@H]1C4=C(CC[C@@]13C)C(=O)OC4)[C@@H]2OC(=O)c1ccccc1C(=O)O[C@@H]1OC(CO)[C@@H](O)C(O)C1O` (stereo partly drawn) [Compound 4], which IC50 (HEK 293T cells) is on record?
The IC50 was 5888 ± 1.19 nM.

Which IC50 (HEK 293T cells) does the source give for `CC(C)[C@]12O[C@H]1[C@@H]1O[C@]13[C@]1(O[C@H]1C[C@H]1C4=C(CC[C@@]13C)C(=O)OC4)[C@@H]2OC(=O)CC(C)(C)C(=O)O[C@H]1OC(CO)[C@@H](O)C(O)C1O` (stereo partly drawn) [Compound 3] here?
The IC50 was 999 ± 0.217 nM.

Which IC50 (HEK 293T cells) does the source give for `CO[C@H]1OC(COC(=O)CCC(=O)O[C@@H]2[C@@]3(C(C)C)O[C@H]3[C@@H]3O[C@]34[C@]23O[C@H]3C[C@H]2C3=C(CC[C@@]24C)C(=O)OC3)[C@@H](O)C(O)C1O` (stereo partly drawn) [Compound 9] here?
Its IC50 is 395 ± 0.523 nM.

Which “effect on compound 1-induced RNAPII degradation” value [2] does the source give for `O=C(Oc1cccc(F)c1OC(=O)c1cccc(O)c1)c1cccc(O)c1` [WZB117, reference compound] here?
The value was “abolished the rapid degradation of endogenous RNAPII”.

Which results are given for `CC(C)C12OC1C1OC13C1(C)CCC4=C(COC4=O)C1CC1OC13C2OC(=O)CCC(=O)O` (stereo not drawn) [Compound F60008, triptolide-succinate]?
lethality in patients ([3]; administered with <12 mg/m^2 F60008): no lethality was observed in 18 of the 20 patients; lethality in early human clinical study ([3]; highest dose of therapy): lethal to two patients; Maximum serum levels [3, 4]: 1,361 ng/mL; Maximum serum levels (molar) [3, 4]: ~2.96 mM
